The text below walks through data of patent publication US5859188A, “Method for discovering novel anthelmintic compounds” (priority 1997, dated 1999).

Broadly, the IC50 is the midpoint of a concentration-inhibition curve.

Experiment [1] has as its system Ascaris suum tissues. Conditions: tritium on leucine moiety; cited from earlier work.
The test system of experiment [2] is A. suum muscle strips. Conditions: cited from earlier work; for Threshold Concentration: lowest tested concentration that detectably altered tension and/or contractile activity in at least half the strips; for Threshold Concentration (ND class): highest concentration 10 μM.
Experiment [3] deals with receptor preparation (membrane fraction of Ascaris suum body wall muscle), AF2 binding sites. Nature of the experiment: Displacement of radioactive AF2 ([125I]AF2) in a receptor binding assay. The method, then:
Adult female Ascaris suum, swine intestinal parasites, are collected in an abattoir after their removal from the intestine using pressurized water. Healthy specimens over 25 cm are selected, rinsed and placed in Ascaris Ringer's Solution (ARS: 4 mM NaCl, 5.9 mM CaCl2, 4.9 mM MgCl2, 5 mM Tris (C4 H11 NO3), 125 mM NaC2 H3 O2, 24.5 mM KCl, pH=7.4) at 37° C. Specimens are placed in a thermos filled with 37C Ascaris Ringer's solution and immediately air shipped to our laboratory. Upon arrival they are placed in fresh ARS (changed daily) and maintained at 37° C. for up to 3-4 days prior to use.
Ascaris suum body wall tissue (muscle) is dissected out by pinning each specimen in a dissection tray, opening the worm along its entire length at the lateral line with a scalpel, removing the intestine and ovaries and then scraping the muscle from the cuticle. One worm yields approximately 1.0 g tissue. Tissue collected is flash frozen in liquid nitrogen and stored at -80° C. until needed.
Membrane suspension for the binding assay is prepared as follows. […]
Each replicate is one well of a standard 96-well plate and has a volume of 200 μl containing 15 ug protein (preparation described above). […] The plate is shaken on a rotary shaker for 2 hours and then counted on a Top Count® scintillation counter. […]

Experiment [4] has as its system innervated Ascaris suum muscle preparation. Nature of the experiment: Potency evaluation bioassay: muscle tension and contractile frequency of innervated Ascaris suum muscle preparation. To be noted: for Tension: 1 nM peptide, mean. How it is done: AF2 and iodinated AF2 were evaluated in a bioassay using an innervated Ascaris suum muscle preparation and potency was estimated by measuring the physiological effects of the peptides on A. suum muscle tension and contractile frequency.
An adult female was bisected transversely just anterior to the oviduct. A 2 cm segment was obtained anterior from the initial cut and that section was placed immediately under 37° C. medium in a dissection chamber. Two muscle strips were then prepared from each segment. Strips were prepared by cutting the segment longitudinally along one lateral line, removing the gut and then severing the opposite lateral line. Steel wires, 4 cm long, 0.25 mm diameter, with terminal sharpened hooks, were inserted through the muscle strip approximately 3 mm and centered from each end. These hooks were used to suspend the muscle strip between an isometric force transducer and a stationary holdfast in a 37° C. water jacketed incubation chamber filled with suppressive Ascaris Ringer's Solution constantly bubbled with N2. The transducer was connected to a Gould chart recorder via a Gould Universal amplifier.
The muscle tension on each preparation was "normalized" to zero five minutes before the addition of a test compound or vehicle. Compounds or vehicles were introduced from stock solutions and assayed at a final concentration of 1 nM in replicate (n=6). […] Inhibition is manifested as a drop in baseline tension (compared to control), while excitation is defined as a marked rise in baseline tension, often superimposed with transient muscle contractions (spiking). In order to estimate the net change in muscle tension of these preparations, the midpoint of the spike was estimated visually. Muscle tension data were analyzed by analysis of variance.

Ends that are not written are not given here. Peptide text beside a SMILES is read from it. * marks the point of attachment. X1 = CC(C)C[C@@H](CN[C@@H](CCCNC(=N)N)C(=O)N[C@@H](Cc1ccccc1)C(N)=O)N*

For “[^3 H]PF1: PF1 (Ser-Asp-Pro-Asn-Phe-Leu-Arg-Phe-NH2 ; SDPNFLRFamide) radiolabelled by exchanging a tritium atom for a hydrogen on the leucine moiety (SDPNFLRF-NH2; also: tritium label on Leu6)”, the specific binding in experiment [1] is reported as 40%.
Regarding KNEFIAF-NH2, the “Threshold Concentration” value in experiment [2] was 10 µM.
In the case of “Lys-His-Glu-Tyr^--I -Leu-Arg-Phe-amide [Iodo AF2]”, the specific binding in experiment [3] (radioligand in current embodiment of binding assay) was greater than 80%. Besides, the “type of response of muscle tension” value in experiment [4] (1 nM) is reported as “biphasic responses (short term inhibition followed by long term excitation)”. Besides, the Tension in experiment [4] (5 min after peptide addition) is reported as -430 mg; in experiment [4] (15 min after peptide addition) it was -403 mg; in experiment [4] (30 min after peptide addition), -237 mg; in experiment [4] (60 min after peptide addition) it was -437 mg. Further, the Spike amplitude result in experiment [4] (1 nM, FIG. 1) was “significant increase”.
KNEFARF-NH2: the “Threshold Concentration” value in experiment [2] was 10 µM.
In the case of NEFIRF-NH2, the “Threshold Concentration (ND class)” value in experiment [2] is reported as “ND ("ND" means no detectable effect at 10 μM)”.
KNAFIRF-NH2: the “Threshold Concentration” value in experiment [2] is 0.1 µM.
Consider KNEFIRA-NH2, for which the “Threshold Concentration (ND class)” value in experiment [2] is “ND ("ND" means no detectable effect at 10 μM)”.
Regarding `CC(C)C[C@@H](CN[C@@H](CCCNC(=N)N)C(=O)N[C@@H](Cc1ccccc1)C(N)=O)NC(=O)[C@H](Cc1ccc(O)cc1)NC(=O)[C@H](CCC(=O)O)NC(=O)[C@H](Cc1c[nH]cn1)NC(=O)[C@@H](N)CCCCN` [KHEYL*RFamide (reduced bond), KHEYL*RFamide] (H-KHEY-X1), in experiment [3] (displacement of radioactive AF2), the IC50 was 0.02 µM.
For KNEYIRF-NH2, the “Threshold Concentration” value in experiment [2] is 3.2 µM.
For FIRFamide, the “Threshold Concentration (ND class)” value in experiment [2] is on record as “ND ("ND" means no detectable effect at 10 μM)”.
As for KAEFIRF-NH2, the “Threshold Concentration (ND class)” value in experiment [2] was “ND ("ND" means no detectable effect at 10 μM)”.
In the case of KNEAIRF-NH2, the “Threshold Concentration” value in experiment [2] was 3.2 µM.
Regarding ANEFIRF-NH2, the “Threshold Concentration (ND class)” value in experiment [2] is given as “ND ("ND" means no detectable effect at 10 μM)”.
